Source: patent US20260347372A1, “SMALL MOLECULE INHIBITORS OF KRAS G12D MUTANT” (MERCK SHARP & DOHME LLC, priority 2023, published 2026)

Key:
[1] = target: KRAS G12V (Homo sapiens, UniProt P01116, G12V); test: SOS-catalyzed nucleotide exchange assay, KRAS G12V (Procedure A); assay type: biochemical; details: GNE
Summary of the method: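 Biotinylated KRAS G12V was loaded with Bodipy-GDP alongside Terbium-streptavidin to form a TR-FRET complex, which was preincubated with compounds for 60 minutes in 384-well plates. Human SOS protein and unlabeled GTP were then added for 90 minutes, giving final concentrations of 1.25 nM KRAS-G12V, 160 nM SOS and 3 mM GTP. The 520/495 nm emission ratio was read on an Envision.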

[2] = target: T1, PANC08.13 cells (Homo sapiens, UniProt P01116, G12D); test: Cellular phospho-ERK assay, PANC08.13 cells (KRAS G12D); assay type: cell-based; details: 2 hours, read-out: PANCO 813 pERK IC50
T1 construct: p-ERK/total ERK AlphaSureFire read-out
Experimental: Procedure for Cellular Phospho-ERK Assay in KRAS Wild Type and Mutant (G12D, G12V) Cell Lines
PANC08.13 cells (ATCC® CRL-2551™), containing homozygous KRAS-G12D activating mutation, were cultured in growth medium made of RPMI1640-GlutaMAX™-I (ThermoFisher Scientific 61870) containing 15% heat inactivated fetal bovine serum (ThermoFisher Scientific 10091148)). AsPC-1 cells (ATCC® CRL-1682™), containing homozygous KRAS-G12D activating mutation, were cultured in T150 flask in growth medium (RPMI medium 1640-GlutaMAX™-I (ThermoFisher Scientific 61870) containing 10% fetal bovine serum (ThermoFisher Scientific 10091148)).
Cells for the assay were harvested in growth medium after TrypLE (ThermoFisher scientific 12604021) digestion and were seeded in a 384-well collagen coated cell culture plate (Corning 356702) at a density of 10,000-15,000 cells/20 μL/well, and incubated at 37° C., 5% CO2 overnight. The compound (with 10 mM stock concentration) dose-response titrations were prepared [30 μM final ERK detection assay concentration and 1:3 dilutions, 10-point dose response] and appropriate amounts (270 nL) of test compounds were dispensed in a 384-well intermediate plate using an Echo 550 liquid handler. 30 μL/well of RPMI medium 1640-GlutaMAX™-I was added to the intermediate plate and the contents of the intermediate plate (10 μL/well) were then transferred to the 384-well collagen coated cell culture plate, which was incubated at 37° C., 5% CO2 for 2 hours. After removal of medium from the collagen coated cell culture plate, cells were lysed in lysis buffer from Alpha SureFire® Ultra™ Multiplex p-ERK and total ERK assay kit (PerkinElmer MPSU-PTERK) containing Halt™ Protease and Phosphatase inhibitor cocktail (ThermoFisher Scientific 78446) at room temperature with constant shaking at 300 rpm for 30 minutes. The cell lysates were then transferred to an OptiPlate-384 plate (PerkinElmer 6005620), and the phosphorylation of ERK (p-ERK) and total ERK levels were detected by Alpha SureFire® Ultra™ Multiplex p-EEK kit and total ERK assay kit (PerkinElmer MPSU-PTERK) following the manufacturer's protocol. Assay plates were read on a EnVision Multimode Plate Reader (PerkinElmer), and the ratio of p-ERK vs. total ERK in each well was used as the final readout. Dose response curves were analyzed using a 4-parameter logistic model to calculate IC50 values using Spotfire software.

[3] = target: KRAS G12D (Homo sapiens, UniProt P01116, G12D); test: SOS-catalyzed nucleotide exchange assay, KRAS G12D (Procedure A); assay type: biochemical; details: guanine nucleotide exchange (GNE)
Summary of the method: (§1)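 Compounds in 10-point 3-fold series sat 60 min with biotin-KRAS/Bodipy-GDP/Tb-streptavidin complex, then human SOS and 3 mM GTP were added. G13D: 1.25 nM KRAS, no SOS, 30 min. WT and G12D: 1 nM with 40 nM SOS, 60 min. G12C (C51S/C80L/C118S): 3 nM/40 nM, 60 min. Curves fitted from normalised TR-FRET 520/495 ratio.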

[4] = target: KRAS WT (Homo sapiens, UniProt P01116); test: SOS-catalyzed nucleotide exchange assay, KRAS WT (Procedure A); assay type: biochemical; details: GNE
Summary of the method: as §1

[5] = target: KRAS G12C (Homo sapiens, UniProt P01116, C118S/C51S/C80L/G12C); test: SOS-catalyzed nucleotide exchange assay, KRAS G12C (Procedure A); assay type: biochemical; details: GNE
Summary of the method: as §1

[6] = target: NRAS (Homo sapiens, UniProt P01111); test: SOS-catalyzed nucleotide exchange assay, NRAS (Procedure A); assay type: biochemical; details: GNE
Summary of the method: (§2)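 60 min cpd preinc. w/ RAS–Bodipy-GDP–Tb-SA complex; + hSOS/GTP (3 mM final), RT. G12C 3 nM RAS/40 nM SOS; WT, G12D 1 nM/40 nM; 60 min rxn. G13D 1.25 nM, no SOS, 30 min rxn. HEPES pH 7.5, 10 mM MgCl2. Ratio 520/495, norm. to DMSO/max-inhibitor ctrls.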

[7] = target: KRAS G13D (Homo sapiens, UniProt P01116, G13D); test: SOS-catalyzed nucleotide exchange assay, KRAS G13D (Procedure A); assay type: biochemical; details: GNE
Summary of the method: as §1

[8] = target: HRAS (Homo sapiens, UniProt P01112); test: SOS-catalyzed nucleotide exchange assay, HRAS (Procedure A); assay type: biochemical; details: GNE
Summary of the method: as §2

T1 sequence (P01116 1-188 isoform P01116-2 G12D): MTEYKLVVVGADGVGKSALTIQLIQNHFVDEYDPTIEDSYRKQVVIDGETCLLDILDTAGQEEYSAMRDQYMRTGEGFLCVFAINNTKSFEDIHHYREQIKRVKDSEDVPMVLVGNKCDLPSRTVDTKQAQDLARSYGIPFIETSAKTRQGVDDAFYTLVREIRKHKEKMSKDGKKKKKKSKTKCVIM
Chain of KRAS G13D (P01116 with tags, fused parts or gaps isoform P01116-2 G13D): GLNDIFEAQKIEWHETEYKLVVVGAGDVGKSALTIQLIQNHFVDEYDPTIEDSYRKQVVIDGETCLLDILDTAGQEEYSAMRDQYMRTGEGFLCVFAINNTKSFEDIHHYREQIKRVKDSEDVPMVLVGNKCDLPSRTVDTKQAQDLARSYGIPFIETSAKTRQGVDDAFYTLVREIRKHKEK
Chain of NRAS (P01111 with tags, fused parts or gaps): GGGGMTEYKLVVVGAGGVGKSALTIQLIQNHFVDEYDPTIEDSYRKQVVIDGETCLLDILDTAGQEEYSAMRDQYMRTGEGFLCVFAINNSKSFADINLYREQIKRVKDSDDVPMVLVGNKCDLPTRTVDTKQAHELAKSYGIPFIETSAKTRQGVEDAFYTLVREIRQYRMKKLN
Chain of KRAS WT (P01116 with tags, fused parts or gaps isoform P01116-2): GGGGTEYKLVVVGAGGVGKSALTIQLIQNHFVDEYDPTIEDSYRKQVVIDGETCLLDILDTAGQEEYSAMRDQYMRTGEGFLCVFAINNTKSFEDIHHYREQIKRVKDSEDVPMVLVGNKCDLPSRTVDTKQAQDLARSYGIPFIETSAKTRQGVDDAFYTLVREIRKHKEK
Chain of KRAS G12V (P01116 with tags, fused parts or gaps isoform P01116-2 G12V): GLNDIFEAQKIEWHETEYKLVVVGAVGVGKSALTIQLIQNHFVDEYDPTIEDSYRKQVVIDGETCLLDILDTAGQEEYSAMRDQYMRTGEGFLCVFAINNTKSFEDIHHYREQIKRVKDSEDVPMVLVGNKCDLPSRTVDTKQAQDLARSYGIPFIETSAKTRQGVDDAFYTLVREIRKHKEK
Chain of KRAS G12C (P01116 with tags, fused parts or gaps isoform P01116-2 G12C/C51S/C80L/C118S): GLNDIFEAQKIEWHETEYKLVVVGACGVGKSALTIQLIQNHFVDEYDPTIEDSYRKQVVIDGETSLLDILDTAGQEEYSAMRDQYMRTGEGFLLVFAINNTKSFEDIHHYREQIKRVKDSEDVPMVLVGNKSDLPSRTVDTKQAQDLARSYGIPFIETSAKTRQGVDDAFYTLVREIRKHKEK
Chain of HRAS (P01112 with tags, fused parts or gaps): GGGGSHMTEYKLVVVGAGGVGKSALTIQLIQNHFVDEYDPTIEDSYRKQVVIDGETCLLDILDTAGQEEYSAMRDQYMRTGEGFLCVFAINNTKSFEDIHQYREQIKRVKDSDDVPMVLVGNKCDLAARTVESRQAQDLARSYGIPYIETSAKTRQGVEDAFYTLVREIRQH
Chain of KRAS G12D (P01116 with tags, fused parts or gaps isoform P01116-2 G12D): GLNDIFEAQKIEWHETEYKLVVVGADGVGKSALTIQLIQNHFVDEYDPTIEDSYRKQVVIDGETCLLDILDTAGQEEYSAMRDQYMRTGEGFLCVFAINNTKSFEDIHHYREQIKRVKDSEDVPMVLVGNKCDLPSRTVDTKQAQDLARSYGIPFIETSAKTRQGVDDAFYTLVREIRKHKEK

IC50 [1] | IC50 [2] | IC50 [3] | IC50 [4] | IC50 [5] | IC50 [6] | IC50 [7] | IC50 [8] | SMILES
> 11.1 µM | 0.666 µM | 0.123 µM | > 11.1 µM | – | – | – | – | Cc1cc2[nH]nc(C#N)c2c(-c2nccc3c2sc2nc(OC[C@@]45CCCN4C[C@H](F)C5)nc(N4C[C@H]5CC[C@@H](C4)N5)c23)c1C(F)F [Ex-18, 4-(4-((1R,5S)-3,8-diazabicyclo[3.2.1]octan-3-yl)-2-(((2R,7aS)-2-fluorotetrahydro-1H-pyrrolizin-7a(5H)-yl)methoxy)pyrido[4′,3′:4,5]thieno[2,3-d]pyrimidin-8-yl)-5-(difluoromethyl)-6-methyl-1H-indazole-3-carbonitrile]
> 11.1 µM | 3.75 µM | 0.119 µM | > 11.1 µM | > 11.1 µM | > 11.1 µM | 4.02 µM | > 11.1 µM | Cc1cc2[nH]nc(C#N)c2c(-c2nccc3c4c(N5C[C@H]6CC[C@@H](C5)N6)nc(OC[C@@]56CCCN5C[C@H](F)C6)nc4n(C)c23)c1C(F)F (single isomer, unassigned) [Ex-4]
> 11.1 µM | 2.48 µM | 0.698 µM | > 11.1 µM | – | – | – | – | CCn1c2nc(OC[C@@]34CCCN3C[C@H](F)C4)nc(N3C[C@H]4CC[C@@H](C3)N4)c2c2ccnc(-c3c(C(F)(F)F)c(C)cc4[nH]ncc34)c21 [Ex-11, 4-((1R,5S)-3,8-diazabicyclo[3.2.1]octan-3-yl)-9-ethyl-2-(((2R,7aS)-2-fluorotetrahydro-1H-pyrrolizin-7a(5H)-yl)methoxy)-8-(6-methyl-5-(trifluoromethyl)-1H-indazol-4-yl)-9H-pyrido[4′,3′:4,5]pyrrolo[2,3-d]pyrimidine]
> 11.1 µM | 10 µM | 2.69 µM | > 11.1 µM | – | – | – | – | N#Cc1c(N)sc2c(F)ccc(-c3nccc4c3sc3nc(OC[C@]5(CO)CC5(F)F)nc(N5CC6CCC(C5)N6)c34)c12 [Ex-60, 4-(4-(3,8-diazabicyclo[3.2.1]octan-3-yl)-2-(((R)-2,2-difluoro-1-(hydroxymethyl)cyclopropyl)methoxy)pyrido[4′,3′:4,5]thieno[2,3-d]pyrimidin-8-yl)-2-amino-7-fluorobenzo[b]thiophene-3-carbonitrile]
> 11.1 µM | > 10 µM | 9.42 µM | > 11.1 µM | – | – | – | – | Cc1cc2[nH]ncc2c(-c2nccc3c2sc2nc(OCC4(CO)CCC4)nc(N4C[C@H]5CC[C@@H](C4)N5)c23)c1C(F)F [Ex-64, (1-(((4-((1R,5S)-3,8-diazabicyclo[3.2.1]octan-3-yl)-8-(5-(difluoromethyl)-6-methyl-1H-indazol-4-yl)pyrido[4′,3′:4,5]thieno[2,3-d]pyrimidin-2-yl)oxy)methyl)cyclobutyl)methanol]
> 11.1 µM | 9.74 µM | 0.283 µM | > 11.1 µM | – | – | – | – | Nc1nc2c(-c3nccc4c3sc3nc(OC[C@@]56CCCN5C[C@H](F)C6)nc(N5C[C@H]6CC[C@@H](C5)N6)c34)ccc(F)c2s1 [Ex-16, 4-(4-((1R,5S)-3,8-diazabicyclo[3.2.1]octan-3-yl)-2-(((2R,7aS)-2-fluorotetrahydro-1H-pyrrolizin-7a(5H)-yl)methoxy)pyrido[4′,3′:4,5]thieno [2,3-d]pyrimidin-8-yl)-7-fluorobenzo[d]thiazol-2-amine]
> 11.1 µM | 7.35 µM | 0.859 µM | > 11.1 µM | – | – | – | – | N#Cc1c(N)sc2c(F)cc(F)c(-c3nccc4c3sc3nc(OC[C@]5(CO)CC5(F)F)nc(N5C[C@H]6CC[C@@H](C5)N6)c34)c12 [Ex-61, 4-(4-((1R,5S)-3,8-diazabicyclo[3.2.1]octan-3-yl)-2-(((R)-2,2-difluoro-1-(hydroxymethyl)cyclopro-pyl)methoxy)pyrido[4′,3′: 4,5]thieno[2,3-d]pyrimidin-8-yl)-2-amino-5,7-difluorobenzo[b]thiophene-3-carbonitrile]

More lines, now with the values behind:

SMILES | IC50 [1] | IC50 [2] | IC50 [3] | IC50 [4] | IC50 [5] | IC50 [6] | IC50 [7] | IC50 [8]
Cn1c2nc(OC[C@]3(CO)CC3(F)F)nc(N3C[C@H]4CC[C@@H](C3)N4)c2c2ccnc(-c3c(F)cc(F)c4sc(N)c(C#N)c34)c21 [Ex-63, 4-(4-((1R,5S)-3,8-diazabicyclo[3.2.1]octan-3-yl)-2-(((R)-2,2-difluoro-1-(hydroxymethyl)cyclopro-pyl)methoxy)-9-methyl-9H-pyrido[4′,3′:4,5]pyrrolo[2,3-d]pyrimidin-8-yl)-2-amino-5,7-difluorobenzo[b]thiophene-3-carbonitrile] | > 11.1 µM | > 10 µM | 0.0737 µM | > 11.1 µM | > 11.1 µM | > 11.1 µM | > 11.1 µM | > 11.1 µM
Cn1c2nc(OC[C@@]34CCCN3C[C@H](F)C4)nc(N3C[C@H]4CC[C@@H](C3)N4)c2c2ccnc(-c3ccc(F)c4sc(N)c(C#N)c34)c21 [Ex-5, 4-(4-((1R,5S)-3,8-diazabicyclo[3.2.1]octan-3-yl)-2-(((2R,7aS)-2-fluorotetrahydro-1H-pyrrolizin-7a(5H)-yl)methoxy)-9-methyl-9H-pyrido[4′,3′:4,5]pyrrolo[2,3-d]pyrimidin-8-yl)-2-amino-7-fluorobenzo[b]thiophene-3-carbonitrile] | > 11.1 µM | 1.19 µM | 0.018 µM | > 11.1 µM | > 11.1 µM | > 11.1 µM | 0.349 µM | > 11.1 µM
N#Cc1c(N)sc2c(F)ccc(-c3nccc4c3sc3nc(OC[C@@]56CCCN5C[C@H](F)C6)nc(N5C[C@H]6CC[C@@H](C5)N6)c34)c12 [Ex-17, 4-(4-((1R,5S)-3,8-diazabicyclo[3.2.1]octan-3-yl)-2-(((2R,7aS)-2-fluorotetrahydro-1H-pyrrolizin-7a(5H)-yl)methoxy)pyrido[4′,3′:4,5]thieno [2,3-d]pyrimidin-8-yl)-2-amino-7-fluorobenzo[b] thiophene-3-carbonitrile] | > 11.1 µM | 1.64 µM | 0.024 µM | > 11.1 µM | > 11.1 µM | > 11.1 µM | > 11.1 µM | > 11.1 µM
Cc1cc2[nH]ncc2c(-c2nccc3c2sc2nc(OC[C@]4(CO)CC4(F)F)nc(N4C[C@H]5CC[C@@H](C4)N5)c23)c1OC(F)(F)Cl [Ex-52, ((1R)-1-(((4-((1R,5S)-3,8-diazabicyclo[3.2.1]octan-3-yl)-8-(5-(chlorodifluoromethoxy)-6-methyl-1H-indazol-4-yl)pyrido[4′,3′:4,5]thieno[2,3-d]pyrimidin-2-yl)oxy)methyl)-2,2-difluorocyclopro-pyl)methanol] | > 11.1 µM | 2.77 µM | 0.724 µM | > 11.1 µM | – | – | – | –
Cc1cc2[nH]ncc2c(-c2nccc3c2sc2nc(OC[C@]4(CO)CC4(F)F)nc(N4C[C@H]5CC[C@@H](C4)N5)c23)c1OC(F)F [Ex-51, ((1R)-1-(((4-((1R,5S)-3,8-diazabicyclo[3.2.1]octan-3-yl)-8-(5-(difluoromethoxy)-6-methyl-1H-indazol-4-yl)pyrido[4′,3′:4,5]thieno[2,3-d]pyrimidin-2-yl)oxy)methyl)-2,2-difluorocyclopropyl)methanol] | > 11.1 µM | 6.81 µM | 2.15 µM | > 11.1 µM | – | – | – | –
